Article PMC12595484, “Optimizing multifunctional fluorescent ligands for intracellular labeling” (Proceedings of the National Academy of Sciences of the …, 2025)

Test system: mitochondria from HEK293T cells expressing OMP25–msGFP–HaloTag
Test: Affinity capture of mitochondria with streptavidin beads, in-gel fluorescence
Format: cell-based
Details: for capture efficiency: 100 nM ligand, mean ± SEM; for mitochondria pulldown efficiency at 10-fold higher concentration: 1 µM ligand vs 100 nM
Protocol: We then used 15HTL and 16HTL to purify mitochondria from these cells by incubation followed by washing and cell lysis. The crude supernatant was incubated with streptavidin-coated magnetic microbeads and washed. The bead-bound mitochondria were lysed, and the resulting solution was analyzed by SDS–PAGE/in-gel fluorescence (Fig. 5 A and B). […] The lower in-gel fluorescence brightness for the wash and bound fractions of 15HTL or 16HTL compared to the wash and bound fractions of their parent dyes 5HTL or 6HTL (Fig. 5 B and C) stems from the variability of transient transfection and band broadening due to the larger ligand. […]
Affinity capture and in-gel fluorescence quantification. Affinity capture pulldown isolation experiments of biotin-labeled HaloTag fusion proteins were performed on ice-cold isolation buffer (IB) consisting of KCl (0.18 M), ethylene glycol-bis(β-aminoethyl ether)-N,N,N′,N′-tetraacetic acid (EGTA; 1 mM), 3-(N-morpholino)propanesulfonic acid (MOPS; 5 mM); the pH was adjusted to pH = 7.35 using KOH(aq).15 StrepTactin Microbeads (IBA Lifesciences, 6-5510-050) were used as capture reagents as these beads had lowest amount of background observed in our hands. These beads were kept at 4 °C and blocked in IB buffer with PMSF and 1% (v/v) bovine serum albumin (BSA; Jackson ImmunoResearch, 001-000-162) with rotation at 4 °C for 30 min. HEK293T cells were scraped with 200 µL IB and homogenized using 12 strokes with a 27G syringe. The resulting homogenate was spun at 4 °C at 800 g for 5 min to pellet large cellular debris. 50 µL of freshly blocked StrepTactin microbeads were added to the supernatant and incubated for 30 min at 4 °C with slow rotation. After incubation, tubes were placed in DynaMag2 (ThermoFisher, 12321D) magnetic racks and washed twice with IB+PMSF. All wash steps were kept at 4 °C (cold room).
The post-bead supernatant and wash volumes were pooled and spun at 15,000 g for 12 min. This last step pelleted the unbound mitochondria for final analysis of capture efficiency. The bead fraction and the pooled/pelleted fraction were then solubilized using the lysis buffer containing 1× PBS, 2% (v/v) SDS, 1% (v/v) Triton x-100, 10 mM EDTA, and protease inhibitors (2 mM PMSF, aprotinin, leupeptin, and pepstatin A). Samples were then incubated at 50 °C for 3–4 min after the addition of Laemmli sample buffer (SB; Bio-Rad, 1610747) with β-mercaptoethanol (Bio-Rad, 1610710). For protein detection, 10–20 µL of the sample was subjected to SDS-PAGE, using 10% Tris-Glycine gels (TGX) (Bio-Rad, 5671034) with Tris-Glycine buffer (Bio-Rad, 1610732). The affinity capture pulldown efficiency was monitored using in-gel fluorescence. The msGFP signal from HaloTag-TEV-4×GS-msGFP-mito after cell lysis and SDS-PAGE was analyzed, in-gel, using a Bio-Rad Chemidoc MP imager (Bio-Rad) through GFP fluorescence excitation and emission filters. Data were quantified by densitometry using Fiji.14 Capture efficiency was calculated comparing the total GFP signal recovered from StrepTactin beads vs the signal recovered from the high speed spin of the bead supernatant and pooled wash volumes. […]

| Compound | capture efficiency [%] | mitochondria pulldown efficiency at 10-fold higher concentration | protein capture (biotin-free ligands) |
| --- | --- | --- | --- |
| C[Si]1(C)C2=CC(=[N+]3CC(C(=O)NCCOCCOCCNC(=O)CCCC[C@@H]4SC[C@@H]5NC(=O)N[C@@H]54)C3)C=CC2=C(c2cc(C(=O)NCCOCCOCCCCCCCl)ccc2C(=O)[O-])c2ccc(N3CCC3)cc21 (some centres unmarked) [15HTL, biotin–JF646–HaloTag ligand] | 84.2 ± 1.8 | did not increase mitochondria pulldown efficiency |  |
| C[Si]1(C)c2cc(N3CC(F)C3)ccc2C2(OC(=O)c3ccc(C(=O)NCCOCCOCCCCCCCl)cc32)c2ccc(N3CC(F)C3)cc21 [6HTL, JF635–HaloTag ligand, reference compound] |  |  | no appreciable protein capture |
| C[Si]1(C)C2=CC(=[N+]3CC(F)(C(=O)NCCOCCOCCNC(=O)CCCC[C@@H]4SC[C@@H]5NC(=O)N[C@@H]54)C3)C=CC2=C(c2cc(C(=O)NCCOCCOCCCCCCCl)ccc2C(=O)[O-])c2ccc(N3CC(F)C3)cc21 (some centres unmarked) [16HTL, biotin–JF635–HaloTag ligand] | 88.2 ± 1.1 | did not increase mitochondria pulldown efficiency |  |
